# Source: a melting point compilation (Tetko et al.; mined from patent text by program, amines drawn as free bases though some values may be those of a salt)
row,SMILES,melting point
1,O=C(O)c1ccc2cc(OCCN3CCN(c4ccc(Cl)cc4)CC3)ccc2c1,197 to 199 °C
2,COc1cc2c(cc1Cl)CC(=O)NN=C2c1ccc(N)cc1,234 to 236 °C
3,CS(=O)(=O)NCCCc1c[nH]c(-c2ccc(F)cc2)c1-c1ccncc1,210 to 214 °C
4,Nc1nc(OCc2cccs2)ncc1F,92 to 94 °C
5,CCOC(=O)c1cc(C=O)[nH]n1,133 to 134 °C
6,Nc1c(-c2ccc(-c3ccccc3)cc2)nc2c(Cl)cc(Cl)cc2c1C(=O)O,244 to 245 °C
7,O=C(Nc1ccc2c(c1)C(=O)CCCC2)OCc1ccccc1,120 to 121 °C
8,Cc1nc(-n2cnn(CCOC(=O)NCc3ccc(F)cc3)c2=O)sc1C(=O)NCc1cccnc1,149 to 150 °C
9,CCOC(=O)C1Oc2ccc(Cl)c(Cl)c2O1 (centres undefined),58 to 61 °C
10,CC1(C)Cc2sccc2C=[N+]1[O-],130 to 131 °C
11,CCC1Cc2c(C)c(OCC(=O)O)c(C)c(C)c2C1=O (centres undefined),136 to 137 °C
12,CN(C)c1ccc(C#N)nn1,150 °C
13,N#CCCCCn1c(=O)c2ccccc2n(CCCCN2CCC(OC(c3ccccc3)c3ccccc3)CC2)c1=O,119 to 121 °C
14,COC(=O)c1snc(-c2ccc(OC)cc2)c1N,129 to 131 °C
15,Cc1cc(C(C)(C)C)c(O)c2[nH]c(Cc3ccccc3)nc12,226 to 228 °C
16,Cn1ccc2ccc(CO)cc21,47 to 49 °C
17,CCOC(=O)c1ccc2c(c(C)nn2C)c1C#N,170 to 176 °C
18,OCCN1C2CCC1CC(c1ccc3ccccc3c1)C2 (centres undefined),84 to 88 °C
19,O=C1COC2(CCN(CC(=O)c3ccc(F)cc3)CC2)CN1,206 to 210 °C
20,CCOC(=O)n1nc(N(C)C)c2c(Cl)cccc21,60 to 62 °C
21,COc1ccc2c(c1)c(CC(=O)O[C@H]1CO[C@H]3[C@H]1OC[C@H]3O[N+](=O)[O-])c(C)n2C(=O)c1ccc(Cl)cc1,159 to 160 °C
22,CCCc1c(C(=O)N(C)Cc2ccc3c(Br)c(OCc4nnn[nH]4)ccc3c2)cnn1-c1ccccc1,75 to 85 °C
23,Cc1cc(O)c(S(=O)(=O)C(C)(C)C)c(=O)o1,119 to 120 °C
24,CC(=O)NC(=Cc1ccc(F)cc1)C(=O)OCCC(F)=C(F)F,116 °C
25,CC(=O)Oc1nc2c(N)ncnc2n1Cc1ccccc1,189 to 191 °C
26,CCOC(=O)C1NC(=O)C1OC (centres undefined),91 to 92 °C

row,SMILES,melting point
1,CC(C)Oc1cc(N)ccc1-n1cccc1,55 to 57 °C
2,Cc1ccc(C)n1-c1cc2c(cc1C(F)(F)F)[nH]c(=O)c(=O)n2CCC(=O)NCc1ccccc1,260 to 262 °C
3,O=C(O)c1c(OCc2ccccc2)ccc2ccccc12,127 to 128 °C
4,O=C(c1ccc(-c2ccccc2)cc1)N1Cc2ccc(C(=O)C(Cl)(Cl)Cl)n2Cc2ccccc21,197 to 198 °C
5,COc1cccc(C(N)=O)c1SSc1c(OC)cccc1C(N)=O,188 to 189 °C
6,Cc1oc2c(NC(=O)c3c(Cl)ccc(Cl)c3C(N)=O)cccc2c1C,229 to 232 °C
7,COC(=O)/C=C/c1ccc2c(c1)nc(N)c1ncn(CC(C)(C)O)c12,> 250 °C
8,COc1ccc(-c2nnc3c4ccccc4c(Nc4ccc(C#N)cc4)nn23)cc1,314 °C
9,O=C(Nc1nc(=O)n(S(=O)(=O)c2ccccc2)cc1F)Oc1ccccc1,182 to 185 °C
10,CC(C)(C)Oc1nc2cc(F)c([N+](=O)[O-])cc2nc1Cl,141 to 143 °C
11,CCc1cc2[nH]c(=O)ccc2c(CC)n1,168 to 169 °C
12,COc1c(C)cc(N2CCN(c3ccc(-n4c(C)n[nH]c4=O)cc3)CC2)cc1C,280 °C
13,O=C(O)CCCCCOc1ccccc1C(=O)c1ccccc1O,89 to 91 °C
14,CNC(=S)N1CCc2[nH]cnc2C1,228 °C
15,CC(=O)N(C(C)=O)C(C)=C1CC2C3CC4C2C4C13 (centres undefined),112 to 128 °C
16,CCCNc1ccc2nc(NC(=O)c3ccc(C(C)(C)C)cc3)cn2n1,243 to 244 °C
17,Cc1cc(C#N)cc2c(=O)oc(-c3cc(Br)nn3-c3ncccc3Cl)nc12,263 to 267 °C
18,CCOC(=N)c1cccc(Cc2ccccc2)c1,121 to 122 °C
19,COc1ccc(CS(=O)C(C)(C)C)cc1 (centres undefined),124 to 126 °C
20,COC(=O)C1=C(C)NC(C(OC)OC)=C(C(=O)OC)C1c1cccc2c(=O)c(C)c(-c3ccccc3)oc12 (centres undefined),166 to 168 °C
21,CCC(=O)C1c2cccc(O)c2C(=O)c2c(OC(C)=O)cccc21 (centres undefined),106 °C
22,COc1ccc(C(=O)CCC2OCCO2)cc1OC,103 to 105 °C
23,COc1ccc(Cc2cc3cccc(-c4cccc(C(=O)NCCN5CCCC5)c4)c3o2)cc1OC,119 to 120 °C
24,CC(=O)OC1CC(C)(C)C(OC(=O)c2ccccc2)C(O)C=C1C (centres undefined),113 to 114 °C
25,Nc1nc2ccccc2n2cnc(-c3noc(C4CC4)n3)c12,305 to 310 °C
26,COc1cc(N)c(C)cc1N=Nc1ccc([N+](=O)[O-])cc1,136 to 137 °C

row,SMILES,melting point
1,COCc1cc(C)nc2nc(S(=O)(=O)Nc3c(C)cccc3Cl)nn12,227 °C
2,COC(=O)CCc1cc2cc(Cl)ccc2n1S(=O)(=O)c1ccc(C#N)cc1,155 to 159 °C
3,Cc1c(-c2ccc(C#N)cc2)c(C#N)c(C2CC2)n1Cc1cnc(Cl)c(COC(=O)CCC(=O)O)c1,188 to 189 °C
4,COc1cc(C(=O)CCC(=O)c2cc(OC)c(OC)c(OC)c2)cc(I)c1OCc1ccccc1,134 to 135 °C
5,CCCCNCC(=O)Nc1ccc2c(c1)C(=O)c1cc(NC(=O)CNCCCC)ccc1C2=O,125 °C
6,COc1ccc(C(=O)NCCc2ccccc2C)cc1,81.8 to 82.1 °C
7,N#Cc1cccc(NC(C(=O)O)c2ccccc2)c1 (centres undefined),159 to 162 °C
8,COC(=O)c1ncn(CCCc2ccc(OCc3coc(/C=C/c4ccccc4)n3)cc2)c1C(=O)OC,85 to 86 °C
9,CCCCCCCCCCCCCCC(O)C(O)C(N)CO (centres undefined),132 to 134 °C
10,NC(=O)C1CCN(c2c(Br)cncc2Br)CC1,158 to 160 °C
11,CCCC(=O)Nc1cc(Oc2ccc(Cl)cc2)ccc1NC(=NC(=O)OC)NC(=O)OC,201 °C
12,OCCCc1cnoc1-c1ccc(Br)cc1,72 to 73 °C
13,CC(C)(C)n1ncc(OCc2ccc(Oc3ccc(Cl)cc3)nc2)c(Cl)c1=O,150 to 154 °C
14,Cc1sc(-c2ccccc2)nc1COc1ccc(C=O)cn1,120 to 121 °C
15,CCCc1cc2c(c(C)c1O)CCO2,72 to 73 °C
16,CC(C)(C)OC(=O)NC(Cc1ccccc1)CC(O)C(Cc1ccccc1)NC(=O)OCc1cncs1 (centres undefined),118 to 120 °C
17,COc1nc2cc(Cl)c(Cl)c(C(=O)O)c2nc1OC,230 to 232 °C
18,CCC(NC(=O)CC(F)(F)F)c1ccc(Cl)c2nc3n(c12)CCCN3c1ccc(Cl)cc1Cl (centres undefined),285 to 290 °C
19,CCCc1c(OCCCSc2nnc(SCC(=O)O)s2)ccc(C(C)=O)c1O,129 to 130 °C
20,Cc1nc(-c2nc(C)c(-c3ccnc(Nc4ccc(N5CCOCC5)cc4)n3)s2)cs1,262 to 263 °C
21,Cn1nc(-c2nc(Br)c(N)nc2-c2ccccc2)ccc1=O,220 to 222 °C
22,O=C(Nc1ccccc1)NN1CCN(CCc2c[nH]c3ccccc23)CC1,168 to 171 °C
23,O=C(O)Cc1ccc(CC2CCCCC2=O)cc1 (centres undefined),71.5 to 72.5 °C
24,CS(=O)(=O)c1ccc(-c2cnn(-c3ccc(F)cc3)c(=O)c2Cc2ccccc2)cc1,180 to 182 °C
25,CC1(C)CC(NC(=O)NC23CC4CC(CC(C4)C2)C3)CC(C)(C)C1=O,234 to 238 °C
26,CCCCCc1ccc(-c2c(C(C)C)ccc(CO)c2C(C)C)nc1,81 to 82 °C

row,SMILES,melting point
1,CC(C)(N)CCn1c(=O)oc2ccccc21,145 to 147 °C
2,CC(=O)NCCn1ccc2c1-c1cccc(Cl)c1CC2,124 to 126 °C
3,Fc1cc(F)c(-c2c(F)nnc(F)c2-c2ccc(Br)cc2)c(F)c1,132 to 133 °C
4,C1=c2cc3c(cc2Sc2ccccc21)=Cc1ccccc1S3,276 to 280 °C
5,CC(=O)Nc1ccc(OC(C)(C)C(=O)c2ccccc2)cc1,141 to 142 °C
6,O=c1[nH]c2c(o1)-c1ccncc1CC2,290 to 292 °C
7,CCOCc1nc2c(N)nc3cc(N4CCCCC4=O)ccc3c2n1CCCOC(C)C,205 to 206 °C
8,O=C(O)C(Cc1ccccc1F)Cc1ccccc1F,110 to 111 °C
9,COCCn1cc2c(C3C(=O)Nc4ccc(Br)cc43)nc(NCCC3CCCNC3)nc2n1 (centres undefined),270 to 273 °C
10,CSc1nccc(Oc2ccc(NC(=O)OC(C)(C)C)c3ccccc23)n1,173 to 174 °C
11,Cc1ccc2c(-c3ccccc3)onc2c1,77.8 °C
12,CCCC(=O)c1cc2c(=O)cc(C(=O)O)[nH]c2c(C)c1C,267 to 269 °C
13,Cc1cccc(Nc2cc(Cl)nc(SCC(=O)NN3CCOCC3)n2)c1C,106 to 108 °C
14,CN1C(=O)[C@H](NC(=O)CCc2ccccc2C(F)(F)F)N=C(c2ccccc2)c2ccccc21,110 to 113 °C
15,O=S(=O)(C#Cc1ccccc1)c1ccccc1,73 °C
16,CCc1nc2c(C)cc(C)nc2n1Cc1ccc(C(c2ccccc2C)C(C(=O)O)C(=O)O)cc1 (centres undefined),160 to 161 °C
17,CCc1cc(I)c(CC)cc1I,68 to 69 °C
18,N#CNC(=Nc1ccccc1)NCCNCC(O)COc1ccccc1C#N (centres undefined),146 to 147 °C
19,CC12C=CC(=O)C=C1CCC1C2=CCC2(C)C(C(=O)CCl)=CCC12 (centres undefined),136 to 138 °C
20,CCOc1ccc(S(=O)(=O)N(CCO)c2ccccc2/C=C/c2ccncc2)cc1,167 to 169 °C
21,CC(=O)NCC1CC1c1cccc2nc(C(F)(F)F)cn12 (centres undefined),135 to 137 °C
22,COc1ccc(C2c3cccc(O)c3C(=O)c3c(O)cccc32)c(OC)c1,152 °C
23,O=C1Nc2ccc(NC(=O)C(=O)N3CCC(Cc4ccc(F)cc4)CC3)cc2C1=O,205 to 206 °C
24,CCCc1nc(N)nc(N)c1N1CCN(c2ccc(C#N)cc2)CC1,> 300 °C
25,CCCCCCCCCCCCCCCCN1CCN(c2ccc(CCC(=O)O)cc2)CC1,218 to 220 °C
26,CS(=O)(=O)c1nccc(Cl)n1,91 to 93 °C
